Laboratory results as given in US20240393319A1, “FLUORESCENT SENSORS AND METHODS OF MAKING AND USING” (Howard Hughes Medical Institute, priority 2023, published 2024).
Where two headings read alike, the source gives them in different places.

Tests used:
[1] = test system: axonal mitochondria of primary neurons; assay: Axonal mitochondrial ATP (mito-iATPSnFR2) after removal of glucose; format: cell-based
Description: Similar results were obtained in neurons where LDs were induced by blocking DDHD2 activity with KLH45 for 24 hours.

[2] = test system: axonal mitochondria of primary hippocampal neurons; assay: Mitochondrial matrix ATP without glucose (mito-iATPSnFR2); format: cell-based, Sprague-Dawley rats
Description: Data is represented as mean±SE for N=4 (each condition). […] Data from N=4 for each condition is represented as mean±SE, p-value (**≤0.001 for PA and PA+Etox) was determined using unpaired samples t-test. ns signifies non-significant change in mean values.
Primary neuronal cultures were prepared as previously described. Hippocampal CA1 to CA3 regions were dissected, dissociated, and plated onto poly-L-ornithine-coated coverslips. Plating media consisted of the minimal essential medium, 0.5% glucose, insulin (0.024 g/l), transferrin ([…]), GlutaMAX 1%, N-21 (2%), and fetal bovine serum (10%). After 1-3 days in vitro (DIV), cells were fed and maintained in media with the following modifications: cytosine β-D-arabinofuranoside (4 μM) and FBS 5%. Cultures were incubated at 37° C. in a 95% air/5% CO2 incubator. […]
Coverslips were loaded onto a custom chamber, mounted on a Zeiss inverted microscope and perfused at ˜100 μl min^−1 with Tyrode's solution containing: 119 mM NaCl, 2.5 mM KCl, 30 mM glucose, 25 mM HEPES, 2 mM CaCl2), 2 mM MgCl2, 50 μM DL-2-amino-5-phosphonovaleric acid (APV, AP5), 10 μM 6-cyano-7-nitroquinoxaline-2,3-dione (CNQX), adjusted to pH 7.4. […] Fluorescence was stimulated with OBIS 488 nm LX or OBIS 637 nm LS lasers (Coherent) passing through a laser speckle reducer (LSR 3005 at 12° diffusion angle, Optotune). […]

[3] = ATP titration with added inorganic phosphate; format: binding; conditions: 20 mM PO4, pH 7
[4] = test system: synaptic boutons of hippocampal neurons; assay: Syn-iATPSnFR2.HaloTag imaging of ATP depletion in boutons; format: cell-based, rat; conditions: 5 mM glucose + 10 μM KA + 0.3 μM TTX
[5] = test system: Rho° (ρ^0) cells; assay: Green:red ratio imaging in Rho° fibroblasts; format: cell-based, mouse; conditions: 10 mM 2dOG
Description: (§1) Rho° and the parental LMTK-cells were maintained in T-75 flasks with DMEM+10% FBS+1 mM pyruvate+5 μM uridine. Two days prior to transfection, they were split into a 24-well plate (half Rho°, half LMTK) at 0.6 and 0.1 million cells per well, respectively. Cells were transfected with iATPSnFR2.HaloTag variants by lipofectamine (0.5 μg DNA+2 μL lipofectamine 2000 per well) for 4-6 hours in DMEM lacking FBS or antibiotics. Transfection media was replaced with fresh DMEM+10% FBS+penicillin/streptomycin overnight. Cells were labeled with JFX650 HaloTag ligand by adding the fluorophore to 100 nM for an hour. Cells were washed with Mammalian Cell Imaging Buffer and imaged in a Cytation 5 imaging reader (BioTek) over the course of about 2 hours. After about 20 minutes of imaging to establish a baseline fluorescence, the culture plate was removed from the instrument and buffer was replaced with the query buffer. The equilibration buffer contained 10 mM glucose, and the query buffers contained 10 mM 2dOG.
(§2) Images were background subtracted and aligned for movement artefacts with the Gen5 software package that controls the Cytation 5 instrument. Images were assembled as TIF stacks and imported into ImageJ. […] Those ROIs were used to determine the ratio of green to red fluorescence for each well. […]

[6] = TTP titration of purified iATPSnFR2 sensor; format: binding
Description: iATPSnFR2 variants were transformed into E. coli BL21 (DE3) pLysS cells. Protein expression was induced by growth in 300 mL autoinduction media supplemented with 100 μg/mL ampicillin at 30° C. […] Fractions that were fluorescent were pooled and concentrated by ultrafiltration (Amicon) and then dialyzed by Slide-A-Lyzer cassette (30 kDa cutoff) in Mammalian Cell Imaging Buffer. Protein concentration was quantified by alkali denaturation and measurement of the GFP chromophore, with an extinction coefficient of […] at 447 nm.
(§3) Purified protein was mixed with 1.1 molar equivalents of JFX650 HaloTag Ligand and incubated at room temperature for 1 hour and then at 4° C. overnight. Excess HaloTag Ligand was removed by gel filtration on a PD-10 column (GE Life Sciences) and re-concentrated by ultrafiltration.

[7] = biological target: T1, iATPSnFR2.A95A.A119L.HaloTag-JFX650 (L1-VLVG, L2-ICV); cpSFGFP inserted in epsilon subunit of Bacillus subtilis PS3 F0-F1 ATPase; mutations A95A, A119L; SEQ ID N (Bacillus sp. PS3, UniProt P07678); assay: ATP/nucleotide titration, binding curve fits; conditions: for fluorescence change in response to nucleoside triphosphate: GTP, CTP, TTP; for Kd: A95A.A119L
T1 construct: E. coli, Ni-NTA purified
Source text: (1A) Artistic rendering of iATPSnFR2.HaloTag made with PyMol. The N-terminal fragment (residues 1-109) of the epsilon subunit of ATPase (orange, based on 2E5Y.PDB) is fused to cpSFGFP (green). The C-terminus of cpSFGFP is fused to the residual ATP-binding helix (residues 110-129) of the epsilon subunit (pink), which itself is fused to HaloTag (cyan). “Linkers” are shown as sticks in yellow. […] HaloTag fluorophore is shown as sticks in red. […] (1C-1E) Ratio of green (iATPSnFR2) to red (HaloTag-JFX650) fluorescence in fibroblasts transfected with three affinity variants of iATPSnFR2-HaloTag. […] Cells were incubated for 21 minutes in buffer containing 10 mM glucose, and then switched to buffer containing 10 mM 2-deoxyglucose. (1C) Rho° cells. (1D) Parental LMTK cell line. (1E) Parental cell line treated with both 2-deoxyglucose and oligomycin.
ATP (black), CTP (cyan), GTP (grey), TTP (purple).
as §3
The iATPSnFR2.HaloTag-JFX650 was the primary protein used for in vitro characterization.

[8] = test system: LMTK- cells; assay: Green:red ratio imaging in parental LMTK- fibroblasts; format: cell-based, mouse; conditions: 10 mM 2dOG, parental LMTK- cells
Description: as §1, §2

[9] = test system: MaLion; conditions: cited from earlier work
[10] = test system: ChemoG-ATPSiR; conditions: cited from earlier work
[11] = Stopped-flow fluorescence kinetics of ATP binding
Description: Final concentration of protein was thus 0.1 μM.

[12] = pH dependence of fluorescence; format: physicochemical; conditions: ligand-free sensor

T1 sequence (P07678 whole entry, stated change not applied): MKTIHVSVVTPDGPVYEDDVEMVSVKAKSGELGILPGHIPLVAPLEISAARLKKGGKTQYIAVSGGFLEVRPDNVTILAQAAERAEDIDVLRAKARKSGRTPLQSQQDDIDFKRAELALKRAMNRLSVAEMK

In the case of `O=C(N(CCc1ccccc1)C1CCCCC1)n1ncc(-c2ccc(OC(F)(F)F)cc2)n1` [KLH45], the “mitochondrial ATP levels after removal of glucose” value ([1]; DDHD2 blocked for 24 hours, then glucose and KLH45 removed) is reported as “sustained” and the “mitochondrial ATP levels in absence of glucose” value ([2]; KLH45 for 24 hours, then removed) is reported as “ATP levels are sustained”.
In the case of `CCCCCCCCCCCCCCCC(=O)O` [palmitic acid], the “mitochondrial ATP levels in absence of glucose” value ([1]; pre-fed for 4 hours, 10 minutes) is reported as “sustained” and the “mitochondrial ATP levels in absence of glucose” value ([2]; palmitic acid pre-fed for 4 hours, 10 minutes) is reported as “mitochondrial ATP levels were sustained”.
For “A95A.A119L: low affinity iATPSnFR2 variant, characterised as HaloTag-JFX650 fusion”, the “effect of inorganic phosphate on the sensor” value [3] was “negligibly affected”, the “average green to red fluorescence ratio in boutons” value [4] was “greater drop than the medium affinity A95K variant” and the “green fluorescence after glucose replaced with 2dOG” value [5] was “nearly non-fluorescent within minutes of treatment”. The “fluorescence response to TTP” value [6] was “but not TTP”.
In the case of `Nc1ncnc2c1ncn2[C@@H]1O[C@H](COP(=O)(O)O)[C@@H](O)[C@H]1O` [AMP], the “affinity for AMP” value [7] is reported as “minimal, if any, affinity”.
With `CCOC(=O)[C@@]1(CCCCCCOc2ccc(Cl)cc2)CO1` [etomoxir] the “mitochondrial ATP levels after removal of glucose” value ([1]; after KLH45 24 hours, etomoxir included) was “ATP decline over a 10-minute period” and the “decline in mitochondrial ATP level” value ([1]; palmitic acid pre-fed neurons, applied when removing glucose) was “identical to the control neurons without any fuel supplement”.
For `Cc1cn([C@H]2C[C@H](O)[C@@H](COP(=O)(O)OP(=O)(O)OP(=O)(O)O)O2)c(=O)[nH]c1=O` [TTP], the “fluorescence change in response to nucleoside triphosphate” value (“fluorescence change in response” below) ([7]; FIG. 5E) was “not”.
For `O=CC[C@@H](O)[C@H](O)[C@H](O)CO` [2dOG, 2-deoxyglucose], the “fluorescence after 2dOG treatment” value [8] was “decreased fluorescence only in the parental LMTK-cells expressing the weakest affinity variant” and the “green fluorescence after glucose replaced with 2dOG” value [5] was “rapidly dropped”.
In the case of `Nc1ncnc2c1ncn2[C@@H]1O[C@H](COP(=O)(O)OP(=O)(O)O)[C@@H](O)[C@H]1O` [ADP], the “ΔF/F for ADP” value [7] is reported as ~6, the Kd ([7]; read-out: affinity for ADP (binding curve fit), head-to-head with ATP) is reported as 5.3 mM and the Kd ([7]; read-out: affinity for ADP, FIG. 1B, 5D) is reported as 5.3 mM.
In the case of `Nc1nc2c(ncn2[C@@H]2O[C@H](COP(=O)(O)OP(=O)(O)OP(=O)(O)O)[C@@H](O)[C@H]2O)c(=O)[nH]1` [GTP], the “change in fluorescence with GTP” value [9] is listed as “no change in fluorescence”, the “fluorescence change in response” value ([7]; FIG. 5E) is listed as “changes fluorescence” and the Kd ([7]; read-out: affinity for GTP (binding curve fit), FIG. 5E) is listed as ~10 mM. For the same compound, the “change in fluorescence with GTP” value [10] was “no change in fluorescence”.
With “S29W.A95K: high affinity iATPSnFR2 variant, characterised as HaloTag-JFX650 fusion” the “rate of ATP binding / fluorescence change, comparison” value [11] was “faster than A95A.A119L”.
With `Nc1ccn([C@@H]2O[C@H](COP(=O)(O)OP(=O)(O)OP(=O)(O)O)[C@@H](O)[C@H]2O)c(=O)n1` [CTP] the “fluorescence change in response” value ([7]; FIG. 5E) was “changes fluorescence” and the Kd ([7]; read-out: affinity for CTP (binding curve fit), FIG. 5E) was ~10 mM.
For “iATPSnFR2: improved ATP sensor: cpSFGFP inserted in epsilon subunit of ATPase, L1-VLVG, L2-ICV, A95A, A119L”, the “effect of inorganic phosphate on the sensor” value [3] was “not affected” and the pKa [12] was “about 6.0”.
